Results: PMC2248166, “Quantitative peptide binding motifs for 19 human and mouse MHC class I molecules derived using positional scanning combinatorial peptide libraries” (Immunome Research, 2008)

Key:
HLA A*3001 = HLA A*3001 (Homo sapiens, UniProt P04439, D140H/D185E/E176W/F33S/G80R/H175R/K168Q/R138E/R41S); assay: biochemical; type: binding
HLA B*1503 = HLA B*1503 (Homo sapiens, UniProt P01889, A329T/A93T/A95T/C349S/D201E/D98Y/E187L/E204Q/K202T/N87E/Q94N/R155S/R180L/S121R/S35A/V306I/V36M/Y140S/Y91S); assay: biochemical; type: binding
HLA B*5401 = HLA B*5401 (Homo sapiens, UniProt P01889, A329T/C349S/D138N/D201E/E176V/E187T/E204Q/E69G/I76V/K202T/L119W/R155S/R180L/S121T/S35A/S48A/V127L/V306I/V36M/Y140L); type: binding
HLA B*0801 = HLA B*0801 (Homo sapiens, UniProt P01889, A93T/A95T/D138N/E176V/E187T/K202T/Q94N/R180D/S35A/V36M/Y33D/Y91F); assay: biochemical; type: binding
HLA B*1501 = HLA B*1501 (Homo sapiens, UniProt P01889, A329T/A93T/A95T/C349S/D201E/D98Y/E187L/E204Q/E69M/E70A/K202T/N87E/Q94N/R155S/R180W/S121R/S35A/S48A/V306I/V36M/Y140S/Y91S); assay: biochemical; type: binding
H-2 D^d = H-2 D^d (Mus musculus, UniProt P01900); type: binding
H-2 D^d, sequence (P01900 whole entry, looked up): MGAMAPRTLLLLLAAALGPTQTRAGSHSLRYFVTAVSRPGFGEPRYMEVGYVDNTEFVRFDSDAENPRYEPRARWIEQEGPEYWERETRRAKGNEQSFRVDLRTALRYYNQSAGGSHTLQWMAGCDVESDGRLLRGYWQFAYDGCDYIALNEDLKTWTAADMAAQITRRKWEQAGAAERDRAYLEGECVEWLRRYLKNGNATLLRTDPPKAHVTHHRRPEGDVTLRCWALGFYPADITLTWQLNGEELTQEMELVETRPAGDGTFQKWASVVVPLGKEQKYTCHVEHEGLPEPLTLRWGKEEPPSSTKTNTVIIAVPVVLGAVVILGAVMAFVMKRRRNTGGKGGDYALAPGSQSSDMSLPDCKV

HLA B*2705 = HLA B*2705 (Homo sapiens, UniProt P01889, D138H/D201E/E176V/E204Q/G107R/H137Y/K202T/N104T/N87E/Q56L/Q94K/R106L/R155S/R180L/S101D/S121N/S48T/Y140D/Y33H/Y91C); type: binding; details: positional scanning combinatorial 9-mer library; normalized to 1.0 for the best residue at each position
HLA A*6802 = HLA A*6802 (Homo sapiens, UniProt P04439, A269V/D140Y/D185E/E176V/E277Q/E87N/F33Y/G231S/I121R/I166T/I218V/L180W/L300P/L318F/N151K/P208A/P217A/Q86R/R138H/R169H/S129P/T345S/V36M); type: binding
H-2 D^b = H-2 D^b (Mus musculus, UniProt P01899); type: binding
H-2 D^b, sequence (P01887 21-119): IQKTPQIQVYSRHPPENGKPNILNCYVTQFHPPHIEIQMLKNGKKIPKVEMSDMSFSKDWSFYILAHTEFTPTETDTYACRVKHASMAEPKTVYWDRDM
H-2 D^b, sequence (P01899 25-362): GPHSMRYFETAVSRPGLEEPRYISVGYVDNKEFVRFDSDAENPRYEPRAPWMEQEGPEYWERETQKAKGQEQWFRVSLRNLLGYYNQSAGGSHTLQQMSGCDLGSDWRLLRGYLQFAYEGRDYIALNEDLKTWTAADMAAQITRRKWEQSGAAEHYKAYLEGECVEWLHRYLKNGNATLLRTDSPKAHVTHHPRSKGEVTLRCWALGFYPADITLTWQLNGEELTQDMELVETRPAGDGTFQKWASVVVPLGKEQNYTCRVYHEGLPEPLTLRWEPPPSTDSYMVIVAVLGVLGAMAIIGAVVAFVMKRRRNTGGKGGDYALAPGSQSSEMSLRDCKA

HLA B*5801 = HLA B*5801 (Homo sapiens, UniProt P01889, A329T/C349S/D201E/D98Y/E176V/E187L/E204Q/E69T/G107R/I218V/I90N/K202T/L105A/L119I/N104I/N87E/Q89R/Q94S/R106L/R155S/R180L/R86G/S101N/S121R/S35A/S48A/T118I/V127L/V306I/V36M/Y140S/Y91M); type: binding
HLA B*3501 = HLA B*3501 (Homo sapiens, UniProt P01889, A329T/A93T/A95T/C349S/D201E/D98Y/E176V/E187L/E204Q/E69T/I218V/K202T/L119I/Q94N/R155S/R180L/S121R/S35A/S48A/T118I/V127L/V306I/V36M/Y140S/Y91F); type: binding
H-2 K^k = H-2 K^k (Mus musculus, UniProt P04223); type: binding
H-2 K^k, sequence (P01887 21-119): as the sequence (P01887 21-119) above
H-2 K^k, sequence (P04223 22-369): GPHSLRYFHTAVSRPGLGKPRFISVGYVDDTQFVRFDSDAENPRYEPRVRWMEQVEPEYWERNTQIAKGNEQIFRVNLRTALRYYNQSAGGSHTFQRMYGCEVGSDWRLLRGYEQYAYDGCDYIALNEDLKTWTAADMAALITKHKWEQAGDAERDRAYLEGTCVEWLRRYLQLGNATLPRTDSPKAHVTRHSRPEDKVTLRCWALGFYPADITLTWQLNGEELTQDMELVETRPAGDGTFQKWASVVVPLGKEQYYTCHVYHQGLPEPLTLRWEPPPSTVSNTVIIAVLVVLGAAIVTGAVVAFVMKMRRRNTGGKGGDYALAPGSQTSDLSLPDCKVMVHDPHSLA

HLA B*5101 = HLA B*5101 (Homo sapiens, UniProt P01889, A329T/A93T/A95T/C349S/D138N/D201E/D98Y/E187L/E204Q/E69T/G107R/I218V/K202T/L105A/L119W/N104I/Q94N/R106L/R155S/R180L/S101N/S121T/S35A/S48A/V306I/V36M/Y195H/Y91F); type: binding
HLA A*3201 = HLA A*3201 (Homo sapiens, UniProt P04439, A270S/D101S/D185E/E176V/E277Q/F133L/G103R/G107R/G231S/H175R/I121M/I218V/I322F/K168Q/L105A/L300P/L318F/M331R/P208A/P217A/Q94H/R106L/R138Q/S129P/T104I/T323A/T345S/V100E/V321M/V358M); assay: biochemical; type: binding
HLA B*0702 = HLA B*0702 (Homo sapiens, UniProt P01889); type: binding; details: positional scanning combinatorial 9-mer library; normalized to 1.0 for the best residue at each position
HLA B*5301 = HLA B*5301 (Homo sapiens, UniProt P01889, A329T/A93T/A95T/C349S/D201E/D98Y/E176V/E187L/E204Q/E69T/G107R/I218V/K202T/L105A/L119I/N104I/Q94N/R106L/R155S/R180L/S101N/S121R/S35A/S48A/T118I/V127L/V306I/V36M/Y140S/Y91F); type: binding
HLA A*0201 = HLA A*0201 (Homo sapiens, UniProt P04439, D140Y/D185E/D98H/E176V/E277Q/G131W/G231S/I119V/I121R/I166T/I218V/L300P/L318F/N151K/N90K/P208A/P217A/Q86G/Q94H/R138H/R169H/T345S); details: positional scanning combinatorial 9-mer library; normalized to 1.0 for the best residue at each position
HLA B*5802 = HLA B*5802 (Homo sapiens, UniProt P01889, A329T/C349S/D201E/D98Y/E176V/E187L/E204Q/E69T/G107R/I218V/I90N/K202T/L105A/N104I/N87E/Q89R/Q94S/R106L/R155S/R180L/R86G/S101N/S121W/S35A/S48A/V127L/V306I/V36M/Y140S/Y91M); type: binding

QXXXXXXXX [3064.0014]
Normalized average relative binding affinity (ARB), HLA A*3001 (HLA A*3001): 0.063 | Normalized average relative binding affinity (ARB), HLA B*1503 (HLA B*1503): 0.074 | Normalized average relative binding affinity (ARB), HLA B*5401 (HLA B*5401): 0.031 | Normalized average relative binding affinity (ARB), HLA B*0801 (HLA B*0801): 0.048 | Normalized average relative binding affinity (ARB), HLA B*1501 (HLA B*1501): 0.25 | Normalized average relative binding affinity (ARB), H-2 Dd (H-2 D^d): 0.39 | Normalized average relative binding affinity (ARB), HLA B*2705 (HLA B*2705): 0.067 | Normalized average relative binding affinity (ARB), HLA A*6802 (HLA A*6802): 0.039 | Normalized average relative binding affinity (ARB), H-2 Db (H-2 D^b): 0.060 | Normalized average relative binding affinity (ARB), HLA B*5801 (HLA B*5801): 0.17 | Normalized average relative binding affinity (ARB), HLA B*3501 (HLA B*3501): 0.081 | Normalized average relative binding affinity (ARB), H-2 Kk (H-2 K^k): 0.45 | Normalized average relative binding affinity (ARB), HLA B*5101 (HLA B*5101): 0.037 | Normalized average relative binding affinity (ARB), HLA A*3201 (HLA A*3201): 0.23 | Normalized average relative binding affinity (ARB), HLA B*0702 (HLA B*0702): 0.065 | Normalized average relative binding affinity (ARB), HLA B*5301 (HLA B*5301): 0.021 | Normalized average relative binding affinity (ARB), HLA A*0201 (HLA A*0201): 0.019 | Normalized average relative binding affinity (ARB), HLA B*5802 (HLA B*5802): 0.033

XXYXXXXXX [3064.0060]
Normalized average relative binding affinity (ARB), HLA A*3001 (HLA A*3001): 0.016 | Normalized average relative binding affinity (ARB), HLA B*1503 (HLA B*1503): 0.44 | Normalized average relative binding affinity (ARB), HLA B*5401 (HLA B*5401): 0.11 | Normalized average relative binding affinity (ARB), HLA B*0801 (HLA B*0801): 0.13 | Normalized average relative binding affinity (ARB), HLA B*1501 (HLA B*1501): 0.60 | Normalized average relative binding affinity (ARB), H-2 Dd (H-2 D^d): 0.0028 | Normalized average relative binding affinity (ARB), HLA B*2705 (HLA B*2705): 0.40 | Normalized average relative binding affinity (ARB), HLA A*6802 (HLA A*6802): 0.26 | Normalized average relative binding affinity (ARB), H-2 Db (H-2 D^b): 0.24 | Normalized average relative binding affinity (ARB), HLA B*5801 (HLA B*5801): 0.34 | Normalized average relative binding affinity (ARB), HLA B*3501 (HLA B*3501): 0.29 | Normalized average relative binding affinity (ARB), H-2 Kk (H-2 K^k): 0.52 | Normalized average relative binding affinity (ARB), HLA B*5101 (HLA B*5101): 0.38 | Normalized average relative binding affinity (ARB), HLA A*3201 (HLA A*3201): 1.0 | Normalized average relative binding affinity (ARB), HLA B*0702 (HLA B*0702): 0.061 | Normalized average relative binding affinity (ARB), HLA B*5301 (HLA B*5301): 0.078 | Normalized average relative binding affinity (ARB), HLA A*0201 (HLA A*0201): 0.88 | Normalized average relative binding affinity (ARB), HLA B*5802 (HLA B*5802): 0.72

XXIXXXXXX [3064.0048]
Normalized average relative binding affinity (ARB), HLA A*3001 (HLA A*3001): 0.020 | Normalized average relative binding affinity (ARB), HLA B*1503 (HLA B*1503): 0.17 | Normalized average relative binding affinity (ARB), HLA B*5401 (HLA B*5401): 0.083 | Normalized average relative binding affinity (ARB), HLA B*0801 (HLA B*0801): 0.15 | Normalized average relative binding affinity (ARB), HLA B*1501 (HLA B*1501): 1.0 | Normalized average relative binding affinity (ARB), H-2 Dd (H-2 D^d): 0.0041 | Normalized average relative binding affinity (ARB), HLA B*2705 (HLA B*2705): 0.22 | Normalized average relative binding affinity (ARB), HLA A*6802 (HLA A*6802): 0.38 | Normalized average relative binding affinity (ARB), H-2 Db (H-2 D^b): 0.24 | Normalized average relative binding affinity (ARB), HLA B*5801 (HLA B*5801): 0.77 | Normalized average relative binding affinity (ARB), HLA B*3501 (HLA B*3501): 0.16 | Normalized average relative binding affinity (ARB), H-2 Kk (H-2 K^k): 0.26 | Normalized average relative binding affinity (ARB), HLA B*5101 (HLA B*5101): 0.39 | Normalized average relative binding affinity (ARB), HLA A*3201 (HLA A*3201): 0.60 | Normalized average relative binding affinity (ARB), HLA B*0702 (HLA B*0702): 0.12 | Normalized average relative binding affinity (ARB), HLA B*5301 (HLA B*5301): 0.26 | Normalized average relative binding affinity (ARB), HLA A*0201 (HLA A*0201): 0.54 | Normalized average relative binding affinity (ARB), HLA B*5802 (HLA B*5802): 1.0

XXMXXXXXX [3064.0051]
Normalized average relative binding affinity (ARB), HLA A*3001 (HLA A*3001): 0.028 | Normalized average relative binding affinity (ARB), HLA B*1503 (HLA B*1503): 0.33 | Normalized average relative binding affinity (ARB), HLA B*5401 (HLA B*5401): 0.24 | Normalized average relative binding affinity (ARB), HLA B*0801 (HLA B*0801): 0.90 | Normalized average relative binding affinity (ARB), HLA B*1501 (HLA B*1501): 0.77 | Normalized average relative binding affinity (ARB), H-2 Dd (H-2 D^d): 0.0095 | Normalized average relative binding affinity (ARB), HLA B*2705 (HLA B*2705): 0.87 | Normalized average relative binding affinity (ARB), HLA A*6802 (HLA A*6802): 1.0 | Normalized average relative binding affinity (ARB), H-2 Db (H-2 D^b): 0.31 | Normalized average relative binding affinity (ARB), HLA B*5801 (HLA B*5801): 0.48 | Normalized average relative binding affinity (ARB), HLA B*3501 (HLA B*3501): 1.0 | Normalized average relative binding affinity (ARB), H-2 Kk (H-2 K^k): 1.0 | Normalized average relative binding affinity (ARB), HLA B*5101 (HLA B*5101): 1.0 | Normalized average relative binding affinity (ARB), HLA A*3201 (HLA A*3201): 0.94 | Normalized average relative binding affinity (ARB), HLA B*0702 (HLA B*0702): 1.0 | Normalized average relative binding affinity (ARB), HLA B*5301 (HLA B*5301): 1.0 | Normalized average relative binding affinity (ARB), HLA A*0201 (HLA A*0201): 1.0 | Normalized average relative binding affinity (ARB), HLA B*5802 (HLA B*5802): 0.57
